Each block holds one compound with its values, some of them ahead of it.
Columns and labels:
Xenopus APC = experiment: ^3H-TAME binding assay in interphase extract; conditions: 200 nM ^3H-TAME
Description: The beads were washed quickly twice with XB high salt and twice with XB.

APC = APC (Xenopus laevis, UniProt A0A1L8ESF3); experiment: Cyclin B1-luciferase reporter degradation (luciferase assay) in mitotic Xenopus egg extract; format: biochemical; conditions: mitotic Xenopus extract
RPE1-H2B-GFP cells = experiment: Fluorescence live cell imaging with survival (Cox) analysis, RPE1; format: cell-based, human; conditions: proTAME 6 μM; for % rate of mitotic exit: relative to DMSO control, Cox model, apcin/apcin-M 25 μM; for Median mitotic duration: apcin or apcin-M 25 μM
Procedure: RPE1-H2B-GFP or U2OS-H2B-GFP cells were plated in 24-well glass-bottom plates 18-24 hours prior to siRNA transfection using RNAiMax (Invitrogen). After treatment with compound(s), DIC and GFP images were captured at 6-minute intervals for 45 hours. Movies were manually analyzed using Nikon Elements software or Image J.
RPE1-H2B-GFP or U2OS-H2B-GFP cells were plated in 24-well glass-bottom plates (Greiner BioOne, 662892) 18-24 hours prior to siRNA transfection using RNAiMax (Invitrogen). Plates were inserted into a covered chamber supplied with humidified 5% CO2 and mounted onto a motorized microscope stage (Prior Scientific). DIC and FITC images were captured at 6 minute intervals for 45 hours using a Nikon Ti inverted fluorescence microscope fitted with a 37° C. enclosed incubation chamber and using a 20× Plan Apo 0.75 NA objective lens. A Hamamatsu ORCA cooled CCD camera collected the images with 2×2 binning using Nikon Elements software (version 3.0). Movies were manually analyzed using Nikon Elements software or ImageJ. Mitotic duration was defined as the time from nuclear envelope breakdown until anaphase, in the case of normal mitosis, or until exit from prolonged mitosis as indicated by cytoplasmic blebbing accompanied by changes in chromatin as detected by H2B-GFP.
In order to detect differences in mitotic duration among cells in the live-cell imaging screen, a stratified Cox proportional hazards model (Cox, D. R. Regression models and life tables. J Royal Statistics Soc B34, 187-220, (1972)) was fit to censored mitotic duration times (where cells that are not observed exiting mitosis or dying in mitosis are censored at the last known time in mitosis). The Cox proportional hazards model is a semiparameteric approach to modeling time-to-event data, in which covariates are assumed to have constant proportional effects over time relative to a baseline hazard function that can take any form. In this case, stratification on “person” (the individual who analyzed the movie) and “date” (the date the assay was run) allow the baseline hazard function to differ across experimental blocks, but assume a fixed effect of treatment across experimental blocks. The model is thus: hi(t|Z=j)=hj(t)exp(β1×apcini+β2×apcinMi+β3×proTAMEi+β4×proTAMEi:apcinMi+β5×proTAMEi:apcini), j=1 . . . 4 where hi(t) is the hazard function of cell i at time t, hj(t) is the baseline hazard for strata j (with 4 levels, one for each person and date combination), apcini, proTAMEi, and apcinMi are indicator variables for presence or absence of the compounds apcin, proTAME, and apcin-M, respectively in cell i, proTAMEi:apcini is an indicator variable that is 1 if both proTAME and apcin are present in cell i, and 0 otherwise, and proTAMEi:apcinMi is a similar indicator variable for proTAME+apcin-M. In this model, […] represent the effects of apcin, apcin-M, and proTAME alone, while β4 and β5 represent the additional non-additive effect of the compounds beyond what is predicted from the combination of effects of the two compounds alone. This model was fit separately to cells treated with control siRNA or Mad2 siRNA. All statistical analysis was carried out in R 3.0.0 using the functions available as part of the survival package.
In this model, the β coefficients represent the log hazard ratios for exiting mitosis between treated and untreated cells. However, for ease of interpretation the β coefficients are exponentiated to convert them to normal hazard ratios, and then multiplied by 100 to convert to percentages relative to DMSO. These hazard ratios, which are referred to as mitotic exit rate, represent the relative probability that a treated cell in mitosis at time t will exit mitosis in the next time interval compared to an untreated cell.
For ease of interpretation, the treatment effects are presented relative to DMSO for all individual compounds and compound combinations. […]

U2OS-H2B-GFP cells = experiment: Fluorescence live cell imaging with survival (Cox) analysis, U2OS; format: cell-based, human; conditions: proTAME 12 μM
Procedure: Mitotic duration and cell fate were determined by manual inspection of the movies and plotted as Kaplan-Meier curves. The hatch marks on the Kaplan-Meier curved indicate mitotic duration endpoints of censored cells. Includes the combined results of five independent experiments. […] Pairwise comparison between proTAME and proTAME+apcin-M tested using a Cox proportional hazards model stratified by date, using data from only the experimental blocks in which both proTAME and proTAME+apcin were tested.
Movies were manually analyzed using Nikon Elements software or Image J.
Plates were inserted into a covered chamber supplied with humidified 5% CO2 and mounted onto a motorized microscope stage (Prior Scientific). […] A Hamamatsu ORCA cooled CCD camera collected the images with 2×2 binning using Nikon Elements software (version 3.0). Movies were manually analyzed using Nikon Elements software or ImageJ. Mitotic duration was defined as the time from nuclear envelope breakdown until anaphase, in the case of normal mitosis, or until exit from prolonged mitosis as indicated by cytoplasmic blebbing accompanied by changes in chromatin as detected by H2B-GFP.
The Cox proportional hazards model is a semiparameteric approach to modeling time-to-event data, in which covariates are assumed to have constant proportional effects over time relative to a baseline hazard function that can take any form. In this case, stratification on “person” (the individual who analyzed the movie) and “date” (the date the assay was run) allow the baseline hazard function to differ across experimental blocks, but assume a fixed effect of treatment across experimental blocks. The model is thus: hi(t|Z=j)=hj(t)exp(β1×apcini+β2×apcinMi+β3×proTAMEi+β4×proTAMEi:apcinMi+β5×proTAMEi:apcini), j=1 . . . […] This model was fit separately to cells treated with control siRNA or Mad2 siRNA. All statistical analysis was carried out in R 3.0.0 using the functions available as part of the survival package.

APC/C-Cdc20 = APC/C-Cdc20 (Xenopus laevis, UniProt Q6DFD4); experiment: Kinetics of APC/C-Cdc20-dependent ubiquitination of cyclin B1 N-terminal fragment; format: biochemical; conditions: methylated ubiquitin
Procedure: Measurements of kinetics of ubiquitination were performed using an N-terminal fragment of cyclin B1 and APC/C isolated from Xenopus extract, exactly as previously described (Zeng, X. & King, R. W. Nat Chem Biol 8, 383-392, (2012)).
Kinetic analysis of APC^Cdc20 reactions. Endogenous APC^Cdc20 was isolated from Xenopus extract as described above. The ubiquitination mixture was prepared as described in Cdc20 ubiquitination assay with the exception that 60 μM methylated ubiquitin was used in place of WT ubiquitin. CycB-NT was diluted into the mixture to final concentrations of 1 μM, 500 nM, 250 nM, 125 nM and 62.5 nM prior to the reaction. For each reaction, 2.5 μl beads were mixed with 20 μl ubiquitination mixture and left on a shaker at RT for 30 seconds. The reaction was stopped by adding 7 μl hot 4×LDS sample buffer (Invitrogen NP0007)+[…]. Band intensity of the mono-, di-, and tri-ubiquitinated cycB-NT was quantitated with Image J and fitted to a hyperbolic equation by nonlinear regression.

APC/C = experiment: ^35S-labeled substrate degradation in mitotic Xenopus egg extract; format: biochemical; conditions: 200 μM
Procedure: Mitotic extracts were pretreated with DMSO or compounds for 10 min. Substrates were expressed and ^35S-methionine labeled using the TNT system from Promega and added to the extract at 10% final volume.
Substrates consisted of human full length cyclin B1, cyclin A2, securin, Nek2A, or an N-terminal fragment of human cyclin B1 (residues 1-88). Each substrate was amplified with primers by PCR to allow T7-dependent transcription of the PCR product. Substrates were expressed and labeled with ^35S-methionine (Perkin Elmer NEG709A500UC) using the TNT system from Promega. […] The in vitro-translation reaction was then added to the mitotic Xenopus extract at 10% final volume. Extracts were then incubated at 24° C., with shaking at 1250 rpm, with samples taken at indicated times. Reactions were quenched with SDS sample buffer and processed for SDS-PAGE and phosphoimaging (Bio-Rad PMI) and quantification was performed using Quantity One software (Bio-Rad).
A 35S-labeled cyclin B1 protein was expressed in reticulocyte lysate, and a 10% volume of this material was added to mitotically arrested Xenopus egg extract, in the presence of DMSO or different concentrations of inhibitors. Aliquots were taken at 0 and 20 minutes, and samples separated by SDS-PAGE and radioactivity measured by quantitative phosphorimager analysis.

Chain of APC (A0A1L8ESF3 entry or part of it): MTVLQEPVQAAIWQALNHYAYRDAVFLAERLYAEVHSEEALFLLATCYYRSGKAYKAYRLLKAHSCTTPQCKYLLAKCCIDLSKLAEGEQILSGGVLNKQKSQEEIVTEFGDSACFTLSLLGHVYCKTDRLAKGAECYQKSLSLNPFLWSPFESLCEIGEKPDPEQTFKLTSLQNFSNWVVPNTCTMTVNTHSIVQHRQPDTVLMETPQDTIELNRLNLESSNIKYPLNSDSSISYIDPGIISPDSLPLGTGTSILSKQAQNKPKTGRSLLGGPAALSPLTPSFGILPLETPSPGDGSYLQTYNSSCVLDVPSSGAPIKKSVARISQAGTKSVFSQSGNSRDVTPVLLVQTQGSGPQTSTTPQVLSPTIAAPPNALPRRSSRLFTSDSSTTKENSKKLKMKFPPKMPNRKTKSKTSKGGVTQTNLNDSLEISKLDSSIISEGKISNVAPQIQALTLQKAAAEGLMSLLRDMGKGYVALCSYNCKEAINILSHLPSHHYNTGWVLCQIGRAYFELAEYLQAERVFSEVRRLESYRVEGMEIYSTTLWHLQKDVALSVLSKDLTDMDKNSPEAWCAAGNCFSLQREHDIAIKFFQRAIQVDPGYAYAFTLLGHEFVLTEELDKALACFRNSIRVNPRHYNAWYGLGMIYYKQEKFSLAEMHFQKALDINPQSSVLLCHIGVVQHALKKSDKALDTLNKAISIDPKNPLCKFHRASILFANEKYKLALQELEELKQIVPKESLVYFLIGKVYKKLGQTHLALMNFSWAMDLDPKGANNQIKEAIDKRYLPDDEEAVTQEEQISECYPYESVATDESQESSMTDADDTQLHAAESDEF
Chain of APC (Q6DFD4 entry or part of it, further chain): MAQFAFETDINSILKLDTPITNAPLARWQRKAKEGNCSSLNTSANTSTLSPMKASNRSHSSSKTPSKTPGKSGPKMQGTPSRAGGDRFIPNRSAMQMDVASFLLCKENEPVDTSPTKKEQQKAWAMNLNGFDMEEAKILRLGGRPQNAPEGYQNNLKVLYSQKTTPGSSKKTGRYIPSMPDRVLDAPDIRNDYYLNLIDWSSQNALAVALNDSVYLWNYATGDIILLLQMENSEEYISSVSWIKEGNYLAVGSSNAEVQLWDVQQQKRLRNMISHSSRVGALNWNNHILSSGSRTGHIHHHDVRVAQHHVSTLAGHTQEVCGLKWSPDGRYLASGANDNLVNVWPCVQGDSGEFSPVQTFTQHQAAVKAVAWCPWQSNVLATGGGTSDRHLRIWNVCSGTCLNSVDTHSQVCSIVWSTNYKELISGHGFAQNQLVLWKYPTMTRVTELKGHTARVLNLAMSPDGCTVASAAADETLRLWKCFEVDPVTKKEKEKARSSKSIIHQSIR

Competition with ^3H-TAME for binding to Xenopus APC (Xenopus APC): did not
Inhibition of cyclin B-luciferase proteolysis (APC): showed only low activity
SMILES: COC(=O)[C@H](CCCNC(=N)N)NC(C)=O [AAME, Acetyl-L-Arginine Methyl Ester]

SMILES: Cc1ncc([N+](=O)[O-])n1CCOC(=O)NC(Nc1ncccn1)C(Cl)(Cl)Cl (stereo not shown) [apcin]
% rate of mitotic exit (RPE1-H2B-GFP cells; Mad2 siRNA): 57.38%
Median mitotic duration (RPE1-H2B-GFP cells; Table 3, control siRNA): 24
Median mitotic duration (RPE1-H2B-GFP cells; Table 3, mad2 siRNA): 19
% rate of mitotic exit (RPE1-H2B-GFP cells; control siRNA): 82.87%
Median mitotic duration (U2OS-H2B-GFP cells; Table 7, apcin or apcin-M 25 μM): 24
% rate of mitotic exit (U2OS-H2B-GFP cells; relative to DMSO control, Cox model, apcin/apcin-M 25 μM): 109.64%
Effect on Km and kcat of APC-dependent ubiquitination (APC/C-Cdc20): caused a significant increase (p=0.0039) in the Km (Ki=23 μM) of the reaction but no reduction in kcat

SMILES: NCCCOC(=O)NC(Nc1ncccn1)C(Cl)(Cl)Cl (stereo not shown) [apcin-A]
Activity on proteolysis of N-terminal ^35S-labeled fragment of cyclin B1 relative to apcin (APC/C): reduced activity

From patent US9572788B2, “Cell permeable inhibitors of anaphase promoting complex” (President and Fellows of Harvard College, priority 2014, dated 2017)
